Test: gradient 5% acetonitrile 3 min, to 50% in 2 min, to 85% in 15 min, held 3 min, 100 µL/min
Conditions: column: Zorbax Extend-C18 2.1 x 50 mm; eluents: water / acetonitrile, 0.1% formic acid
How it was run: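 A Zorbax Extend-C18 column (2.1 × 50 mm, 1.8 μm) run at 100 μL/min with water and acetonitrile, both containing 0.1% formic acid, separated mixtures of ~100 pure standards. The HPLC was coupled to a quadrupole time-of-flight mass spectrometer operated in positive and negative ionization mode, with dead and dwell volumes of 40 μL and 900 μL. Each retention time was taken from a computationally picked adduct peak that was then manually inspected.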

RP-LC retention time [s] | SMILES
766 | Cn1ccc2c(cc(C(=O)NCCC3=CCCCC3)n2C)c1=O
773 | Cc1cccc(CNC(=O)C2CCN(S(=O)(=O)c3cn(C(C)C)cn3)CC2)c1
872 | Cc1noc(C2(NC(=O)Nc3cccc(Cl)c3C)CCCCC2)n1
821 | COC(=O)C1=CN(c2ccc(OC)c(OC)c2)c2cc(F)ccc2S1(=O)=O
774 | CCN1CCC(N(Cc2ccc3c(c2)OCO3)C(=O)Nc2cc(Cl)ccc2C(=O)OC)CC1
1170 | Cc1sc(-c2nc(C(C)C)cs2)cc1S(=O)(=O)Nc1ccccc1F
1010 | Cc1ccc(N2CC(c3nc(-c4cccc(-c5ccnn5C)c4)no3)CC2=O)cc1C (stereo unspecified)
642 | COc1cccc(C(c2sc3ncnn3c2O)N2CCN(C(=O)c3ccco3)CC2)c1 (stereo unspecified)
739 | Cc1ccc(Nc2c(-c3ccccc3O)nc3ccccn23)cc1
777 | COc1ccc(-c2cc(C(F)(F)F)n3ncc(C(=O)O)c3n2)cc1OC
629 | CCCCNC(=O)CCC1CCN(c2cc(NC3CC3)ncn2)CC1
584 | Cn1cc(CCN2CCC(C(=O)NCc3ccc4c(c3)OCO4)CC2)c2cccnc21
782 | Cc1nn2c(CNC(=O)c3ccsc3)c(-c3ccccc3)nc2s1
1360 | CCOC(=O)c1c(C)oc2nc(C)nc(Nc3ccc(OCC)cc3)c12
721 | Cc1cc(C(=O)N2CC(C(=O)Nc3cccc(-c4csc(C)n4)c3)C2)no1
1050 | Cc1cccc(-c2nnc(-c3cccc(S(=O)(=O)N4CCCC4)c3)o2)c1
695 | O=C(c1n[nH]c2c1CCCC2)N1CCCCC1
750 | Cc1ccc(Cn2c(CN3CCC(C(=O)N4CCCC4)CC3)cc3ccccc32)cc1
926 | CCCn1cc(S(=O)(=O)Nc2ccc(F)cc2C)c2cccnc21
883 | O=C(Cc1csc2nc(-c3ccccc3)cn12)Nc1ccc(Br)cc1F
749 | N#Cc1ccsc1NC(=O)c1ccc(S(=O)(=O)N2CCOCC2)cc1
716 | O=C(Cn1nc2c3ccc(Cl)cc3ncn2c1=O)NCc1ccccc1

RP-LC retention time [s] | SMILES
623 | CC(C)n1cnc2cc(CNC(=O)Cc3ccc(F)cc3)ccc21
642 | O=C(O)C1CCCN1C(=O)c1ccc(N2C(=O)C3C4C=CC(C4)C3C2=O)cc1 (stereo unspecified)
1080 | COc1ccc(-c2noc(-c3nc(-c4cc(OC)c(OC)c(OC)c4)no3)n2)cc1
1320 | O=C(CCC1CCCC1)N1CCC(c2noc(-c3ccc(Cl)cc3)n2)CC1
1120 | Cc1cc(C)c(NC(=O)Cn2cccc2-c2nc(-c3ccc4c(c3)OCO4)no2)c(C)c1
795 | O=c1c2nc(-c3ccc(F)cc3)cn2ccn1-c1ccc(F)cc1
734 | Cc1nn(-c2cc(N3CCOCC3)ncn2)c(C)c1CCC(=O)NCCc1ccco1
917 | O=C(Nc1ccc(F)c(Cl)c1)C1CCCN(c2ncnc3c2nc2n3CCCCC2)C1 (stereo unspecified)
583 | Cc1nc(N2CCN(c3ccccn3)CC2)nc2c1C(=O)CCC2
1200 | Cc1ccccc1-c1noc(Cn2cnc3c(cnn3-c3ccc(Br)cc3)c2=O)n1
866 | CC(C)CC(=O)N(CC(=O)N(Cc1ccc2c(c1)OCO2)Cc1ccco1)CC1CCCO1 (stereo unspecified)
773 | COC(=O)c1cc(S(=O)(=O)N2CCCC2C(=O)Nc2cccc(C)n2)cn1C (stereo unspecified)
781 | C[C@H]1CN(C(=O)c2cc(F)cc(F)c2)C[C@@H]1c1nc(-c2ccncc2)no1
983 | CC(C)c1ccc(-c2cc3c4nn(CC(=O)NC5CCCC5)c(=O)n4ccn3n2)cc1
995 | Cc1ccc(CNC(=O)C2(C)CCCN(C(=O)Nc3ccccc3Cl)C2)cc1 (stereo unspecified)
787 | O=S(=O)(Cc1ccccc1)N1CCC(n2c(-c3ccoc3)nc3cccnc32)C1 (stereo unspecified)
931 | Cc1sc(NC(=O)c2ccccc2)nc1-c1ccc2c(c1)NC(=O)C(C)O2 (stereo unspecified)
737 | COc1cccc(S(=O)(=O)N2CCC3(CC2)N(c2ccccc2)C(=O)CS3=O)c1 (stereo unspecified)
837 | CCC(C)NC(=O)N1CCCN(C2=NS(=O)(=O)C(c3cccc(Cl)c3)=C2C)CC1 (stereo unspecified)
636 | CNC(=O)C1CCN(C(=O)Nc2ccc(NC(=O)Nc3ccccc3)cc2)CC1
668 | Cc1cc(C)c2c(n1)sc1c(N3CCC(C(=O)N4CCN(c5ccccn5)CC4)CC3)ncnc12
593 | CO[C@H]1CN(C(C)C)[C@H]1C1CCN(C(=O)C2CC=CC2)CC1

RP-LC retention time [s] | SMILES
835 | COCc1noc([C@@H]2CC(F)(F)CN2C(=O)c2cc(C)oc2C)n1
651 | CCOc1ccc(S(=O)(=O)N2CCC3(CC2)c2nccn2CCN3C)cc1
611 | CC(C)(C)NC(=O)N1CCC(N2CC3(CCCCC3)C2c2ccncc2)CC1 (stereo unspecified)
1380 | CC(C)(C)c1cc(C(=O)Nc2ccccc2F)nc2ccnn12
819 | Cc1ccc(N2CC(c3noc(-c4ccccc4OC(F)(F)F)n3)CC2=O)cc1 (stereo unspecified)
875 | O=C(C1=NN(Cc2cccc(F)c2)c2ccc(Cl)cc2S1(=O)=O)N1CCOCC1
884 | CC1=C(c2ccc(C)c(C)c2)S(=O)(=O)N=C1N1CCC(C(=O)NCCc2ccco2)CC1
636 | Cc1cc(C(=O)N2CCC3(CCC3O)CC2)no1 (stereo unspecified)
648 | CCCn1c(C2CCN(C(=O)Nc3ccc(F)cc3)CC2)cc(=O)n2nccc12
1160 | COc1ccccc1-c1nnc(-c2cc(S(=O)(=O)N3CCC(C)CC3)ccc2Cl)o1
931 | CCOC(=O)c1nc(N(C)c2ccccc2F)c2ccccc2n1
750 | Cc1nc(C2(C)CCN(C(=O)CCc3cc(Cl)no3)CC2)no1
708 | O=C(Nc1ccc2c(c1)CN(C(=O)c1cccs1)CC2)c1cnccn1
834 | CC(C)c1ccc(NC(=O)CSc2ccc(NC(=O)C3CC3)nn2)cc1
743 | COc1ccc(-c2noc(C3CC(=O)N(c4ccc(OC)c(OC)c4)C3)n2)cc1OC (stereo unspecified)
803 | Cc1ccc(C)c(NC(=O)c2c(C)oc3nc(C)nc(N4CCOCC4)c23)c1
779 | CCn1ccc(NC(=O)NC2CCCCC2)n1
906 | CCCNC(=O)C1CCN(c2nc3ccc(-c4ccccc4)nc3s2)CC1
889 | CC(C)(C)n1nc(C2CC2)cc1NC(=O)Nc1ccccc1
764 | CCOC(=O)c1cnc2nc(C)ccc2c1Nc1cc(F)ccc1Cl
867 | COc1cc(-c2nnc(SCC(=O)N3CCCCC3C)o2)cc(OC)c1OC (stereo unspecified)
585 | O=C(CCNc1cnc2cnccn12)NCc1ccccc1C(F)(F)F
